From patent publication US5605906A, “Cannabinoid receptor agonists” (Merck Frosst Canada, Inc., priority 1995, dated 1997) come the findings set out here.

Values joined by “and” are separate entries in the source; they are usually repeats but may differ in a detail not shown here. Equal entries are not always repeated.

Broadly, the IC50 is the point on the concentration scale where inhibition reaches its midpoint. Lower therefore signals greater potency in that assay. Broadly, the EC50 is the concentration needed to bring the measured effect to its halfway point. High values mean lower potency in that assay, low ones higher potency in that assay. As usually defined, the Ki is the equilibrium dissociation constant of an inhibitor or competing ligand from its target. Lower therefore signals higher affinity.

In experiment [1] the target is T1, human central cannabinoid (CB 1) receptor (Homo sapiens, UniProt P21554).
T1 construct: expressed in transfected cells; host or cells: HEK293(EBNA)
The experiment can be described thus: CB1 receptor binding assay ([3H]CP55940, HEK293(EBNA) membranes). The following applies: [3H]CP55940 0.6 nM, pH 7.4, 30 °C, 60 min. As to the method: The compound of Formula I can be tested using the following assays to determine their affinity for binding to the cannabinoid receptors.
Stable cell lines were constructed expressing either the human peripheral cannabinoid (CB2) receptor or the human central cannabinoid (CB 1) receptor as described previously (Gerard. et al., Molecular cloning of a human cannabinoid receptor which is also expressed in testis. Biochem. J. (279)129-134, 1991.). […]
CB2 receptor binding assays were performed in 0.2 ml of 10 mM HEPES/KOH (pH 7.4) containing 1 mM EDTA, 0.3 mg/ml human serum albumin (HSA), 1 mM MgCl2, and 2.4 nM [^3 H]Win 55212-2 (Dupont-NEN Canada, Mississauga, ON). […] The residual [^3 H]Win 55212-2 or [^3 H]CP55940(-) bound to the filters was determined by liquid scintillation counting following a 6h equilibration in 5 ml Biofluor O) (Dupont-NEN Canada, Mississauga, ON) scintillation cocktail (efficiency for tritium was approximately 55%). […]

In experiment [2] the target is T2, human peripheral cannabinoid (CB2) receptor (Homo sapiens, UniProt P34972).
T2 construct: expressed in transfected cells; host or cells: CHO-K1
Description: CB2 functional assay: cAMP assay in CHO-K1 cells expressing the CB2 receptor. It is filed as cell-based. The following applies: forskolin, 37 °C, 15 min. (In general: Cyclic AMP is a second messenger, typically raised through Gs and lowered through Gi signalling.)
Description: Stable cell lines were constructed expressing either the human peripheral cannabinoid (CB2) receptor or the human central cannabinoid (CB 1) receptor as described previously (Gerard. et al., Molecular cloning of a human cannabinoid receptor which is also expressed in testis. Biochem. J. (279)129-134, 1991.). Membranes were prepared from CHO-K1 cells stably expressing the CB2 receptor and HEK293(EBNA) cells stably expressing the CB 1 receptor by differential centrifugation (1000×g for 10 min, then 100,000×g for 30 min, both at 4° C.) following lysis of the cells by nitrogen cavitation at 800 psi for 15 min on ice, as previously described (Frey, E.A., et al., Characterization of the leukotriene D4 receptor in dimethylsulphoxide-dufferentiated U937 cells: comparison with the leukotriene D4 receptor in human-lung and guinea-pig lung. Eur. J. Pharma. (244) 239-250, 1993.). […]
CB2--CHO-K1 cells were seeded at 10^6 cells per 175 cm^2 T-flask in MEM alpha growth medium (MEM alpha medium containing 25 mM HEPES/KOH (pH 7.4), 10% heat inactivated fetal bovine serum, 20 units/ml penicillin G, 20 mg/ml streptomycin sulfate and 500 mg/ml G418) (GIBCO-BRL Canada, Burlington, ON). […] Cell viability was always >96% as determined by trypan blue exclusion. […]

Experiment [3] has as its target T2, human peripheral cannabinoid (CB2) receptor. The experiment can be described thus: CB2 receptor binding assay ([3H]Win 55212-2, CHO-K1 membranes). The following applies: [3H]Win 55212-2 2.4 nM, pH 7.4, 30 °C, 40 min.

T2 sequence (P34972 whole entry): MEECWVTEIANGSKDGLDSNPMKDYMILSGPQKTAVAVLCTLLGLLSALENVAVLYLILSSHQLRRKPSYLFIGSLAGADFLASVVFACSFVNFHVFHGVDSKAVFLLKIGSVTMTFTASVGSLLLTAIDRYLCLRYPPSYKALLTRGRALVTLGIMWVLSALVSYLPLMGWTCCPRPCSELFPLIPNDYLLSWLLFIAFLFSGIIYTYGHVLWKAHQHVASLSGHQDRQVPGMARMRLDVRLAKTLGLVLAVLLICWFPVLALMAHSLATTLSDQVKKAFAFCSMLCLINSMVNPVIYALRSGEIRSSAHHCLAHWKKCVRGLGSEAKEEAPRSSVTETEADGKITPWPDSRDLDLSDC
T1 sequence (P21554 whole entry): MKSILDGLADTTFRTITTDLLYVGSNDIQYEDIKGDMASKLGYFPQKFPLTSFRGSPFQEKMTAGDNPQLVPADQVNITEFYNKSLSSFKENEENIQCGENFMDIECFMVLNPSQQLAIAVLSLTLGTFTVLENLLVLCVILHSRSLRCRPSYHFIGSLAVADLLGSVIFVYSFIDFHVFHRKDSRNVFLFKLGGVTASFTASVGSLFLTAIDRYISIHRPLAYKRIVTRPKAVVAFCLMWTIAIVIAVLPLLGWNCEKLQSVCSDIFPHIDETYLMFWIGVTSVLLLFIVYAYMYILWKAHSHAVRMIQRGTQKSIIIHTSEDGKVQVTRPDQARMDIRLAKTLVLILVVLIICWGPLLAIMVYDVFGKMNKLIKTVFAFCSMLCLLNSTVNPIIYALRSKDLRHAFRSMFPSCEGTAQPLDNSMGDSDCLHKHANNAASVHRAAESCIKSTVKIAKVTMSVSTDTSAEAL

Compound `CCCCCCC(C)(C)c1cc(O)c2c(c1)OC(C)(C)[C@@H]1CC=C(CO)C[C@@H]21` [HU-210, reference compound] showed an IC50 in experiment [1] of 2.5 ± 0.2 nM.

`COc1ccc2c(c1)N(C)C(C)(C)[C@@H]1CC[C@@H](C)C[C@@H]21` [Example 1, (6aR,9R,10aR)-3-Methoxy-5,6,6,9-tetramethyl-5,6,6a,7,8,9,10,10a-octahydro-phenanthridine]: the concentration for a half-maximal effect (EC50) in experiment [2] was 68 nM and 149 nM. Moreover, in experiment [1], the half-maximal inhibitory concentration (IC50) is 22300 nM and 27400 nM. Further, the Ki in experiment [3] is 73 nM and 55 nM.
